Measurements: ChEMBL document CHEMBL4118195, “Synthesis and profiling of benzylmorpholine 1,2,4,5-tetraoxane analogue N205: Towards tetraoxane scaffolds with potential for single dose cure of malaria” (Bioorg Med Chem, 2018)

What was measured:
[1] = Metabolic stability in rat blood after 2 to 4 hrs by LC-MS method; assay type: ADME, tissue-based
[2] = Plasma concentration in Plasmodium berghei infected mouse at 30 mg/kg, po administered as single dose after 24 hrs; assay type: ADME, organism-based
[3] = Drug degradation in rat liver microsomes assessed as compound half life at 5 uM by UPLC-MS method; assay type: ADME, microsome
[4] = Drug degradation in mouse liver microsomes assessed as compound half life at 1 uM by UPLC-MS method; assay type: ADME, microsome
[5] = Intrinsic clearance in human liver microsomes assessed per mg protein at 1 uM by UPLC-MS analysis; assay type: ADME, microsome; conditions: read-out: CLH
[6] = Intrinsic clearance in rat liver microsomes assessed per mg protein at 5 uM by UPLC-MS analysis; assay type: ADME, microsome; conditions: read-out: CLH
[7] = Intrinsic clearance in mouse liver microsomes assessed per mg protein at 1 uM by UPLC-MS analysis; assay type: ADME, microsome; conditions: read-out: CLH
[8] = Drug metabolism in rat liver microsomes assessed as metabolite 4-(4-(morpholinomethyl)phenyl)cyclohexanol formation at 5 uM after 60 mins by UPLC-MS analysis; assay type: ADME, microsome; conditions: 1 h
[9] = Drug metabolism in human liver microsomes assessed as metabolite M+16 (III) formation at 5 uM after 60 mins by UPLC-MS analysis; assay type: ADME, microsome; conditions: 1 h
[10] = Drug metabolism in rat liver microsomes assessed as metabolite M+16 (III) formation at 5 uM after 60 mins by UPLC-MS analysis; assay type: ADME, microsome; conditions: 1 h
[11] = Drug metabolism in human liver microsomes assessed as metabolite M+16 (IV) formation at 5 uM after 60 mins by UPLC-MS analysis; assay type: ADME, microsome; conditions: 1 h
[12] = Drug metabolism in mouse liver microsomes assessed as metabolite M+16 (IV) formation at 5 uM after 60 mins by UPLC-MS analysis; assay type: ADME, microsome; conditions: 1 h
[13] = Drug metabolism in mouse liver microsomes assessed as metabolite M+32 (IV) formation at 5 uM after 60 mins by UPLC-MS analysis; assay type: ADME, microsome; conditions: 1 h
[14] = Drug metabolism in rat liver microsomes assessed as deaminated morpholine metabolite formation at 5 uM after 60 mins by UPLC-MS analysis; assay type: ADME, microsome; conditions: 1 h
[15] = Drug metabolism in rat liver microsomes assessed as open morpholine ring metabolite formation at 5 uM after 60 mins by UPLC-MS analysis; assay type: ADME, microsome; conditions: 1 h
[16] = Drug metabolism in human liver microsomes assessed as deaminated morpholine acid metabolite formation at 5 uM after 60 mins by UPLC-MS analysis; assay type: ADME, microsome; conditions: 1 h
[17] = Drug metabolism in rat liver microsomes assessed as deaminated morpholine acid metabolite formation at 5 uM after 60 mins by UPLC-MS analysis; assay type: ADME, microsome; conditions: 1 h
[18] = Drug metabolism in human liver microsomes assessed as bis-oxygenation and dehydrogenation metabolite formation at 5 uM after 60 mins by UPLC-MS analysis; assay type: ADME, microsome; conditions: 1 h
[19] = target: T1, Cytochrome P450 1A2 (Homo sapiens, UniProt P05177); experiment: Inhibition of CYP1A2 in human liver microsomes assessed as phenacetin O-deethylation after 4 to 40 mins in presence of NADPH by LCMS analysis; assay type: ADME
T1 sequence (P05177 whole entry): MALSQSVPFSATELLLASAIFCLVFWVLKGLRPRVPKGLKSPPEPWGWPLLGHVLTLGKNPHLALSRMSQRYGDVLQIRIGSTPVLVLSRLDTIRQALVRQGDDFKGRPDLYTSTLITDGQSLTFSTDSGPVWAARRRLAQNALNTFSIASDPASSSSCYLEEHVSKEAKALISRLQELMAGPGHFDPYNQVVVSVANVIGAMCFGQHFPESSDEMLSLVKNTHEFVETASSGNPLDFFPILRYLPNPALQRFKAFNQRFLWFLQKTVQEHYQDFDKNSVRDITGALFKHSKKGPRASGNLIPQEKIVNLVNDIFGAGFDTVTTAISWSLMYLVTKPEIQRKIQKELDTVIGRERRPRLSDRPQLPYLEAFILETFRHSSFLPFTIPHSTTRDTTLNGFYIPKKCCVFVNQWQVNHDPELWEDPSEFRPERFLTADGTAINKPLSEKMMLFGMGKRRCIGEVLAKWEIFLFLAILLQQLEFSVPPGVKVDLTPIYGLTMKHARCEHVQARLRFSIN

[20] = Cmax in humanized NOD.Cg-Prkdcscid Il2rgtm1Wjl/SzJ mouse infected with Plasmodium falciparum Pf3D70087/N9 at 15 mg/kg, po administered as single dose after 0.25 to 23 hrs by LC-MS/MS analysis; assay type: ADME, organism-based; parameters: dose 15 mg/kg, route oral; conditions: in vivo
[21] = Cmax in humanized NOD.Cg-Prkdcscid Il2rgtm1Wjl/SzJ mouse infected with Plasmodium falciparum Pf3D70087/N9 at 100 mg/kg, po administered as single dose after 0.25 to 23 hrs by LC-MS/MS analysis; assay type: ADME, organism-based; parameters: dose 100 mg/kg, route oral; conditions: in vivo
[22] = tested on: Mus musculus; experiment: Dose normalized Cmax in humanized NOD.Cg-Prkdcscid Il2rgtm1Wjl/SzJ mouse infected with Plasmodium falciparum Pf3D70087/N9 at 30 mg/kg, po administered as single dose after 0.25 to 23 hrs by LC-MS/MS analysis; assay type: ADME, organism-based; conditions: in vivo
[23] = tested on: Mus musculus; experiment: Dose normalized Cmax in humanized NOD.Cg-Prkdcscid Il2rgtm1Wjl/SzJ mouse infected with Plasmodium falciparum Pf3D70087/N9 at 50 mg/kg, po administered as single dose after 0.25 to 23 hrs by LC-MS/MS analysis; assay type: ADME, organism-based; conditions: in vivo
[24] = tested on: Mus musculus; experiment: Dose normalized Cmax in humanized NOD.Cg-Prkdcscid Il2rgtm1Wjl/SzJ mouse infected with Plasmodium falciparum Pf3D70087/N9 at 100 mg/kg, po administered as single dose after 0.25 to 23 hrs by LC-MS/MS analysis; assay type: ADME, organism-based; conditions: in vivo
[25] = Tmax in humanized NOD.Cg-Prkdcscid Il2rgtm1Wjl/SzJ mouse infected with Plasmodium falciparum Pf3D70087/N9 at 15 mg/kg, po administered as single dose by LC-MS/MS analysis; assay type: ADME, organism-based; conditions: in vivo
[26] = Tmax in humanized NOD.Cg-Prkdcscid Il2rgtm1Wjl/SzJ mouse infected with Plasmodium falciparum Pf3D70087/N9 at 30 mg/kg, po administered as single dose by LC-MS/MS analysis; assay type: ADME, organism-based; conditions: in vivo
[27] = Tmax in humanized NOD.Cg-Prkdcscid Il2rgtm1Wjl/SzJ mouse infected with Plasmodium falciparum Pf3D70087/N9 at 50 mg/kg, po administered as single dose by LC-MS/MS analysis; assay type: ADME, organism-based; conditions: in vivo
[28] = AUC (0 to t) in humanized NOD.Cg-Prkdcscid Il2rgtm1Wjl/SzJ mouse infected with Plasmodium falciparum Pf3D70087/N9 at 15 mg/kg, po administered as single dose by LC-MS/MS analysis; assay type: ADME, organism-based; conditions: in vivo
[29] = AUC (0 to t) in humanized NOD.Cg-Prkdcscid Il2rgtm1Wjl/SzJ mouse infected with Plasmodium falciparum Pf3D70087/N9 at 30 mg/kg, po administered as single dose by LC-MS/MS analysis; assay type: ADME, organism-based; conditions: in vivo
[30] = tested on: Mus musculus; experiment: Dose normalized AUC (0 to t) in humanized NOD.Cg-Prkdcscid Il2rgtm1Wjl/SzJ mouse infected with Plasmodium falciparum Pf3D70087/N9 at 100 mg/kg, po administered as single dose by LC-MS/MS analysis; assay type: ADME, organism-based; conditions: in vivo
[31] = Retention time of the compound; assay type: physicochemical

c1cc(C2CCC3(CC2)OOC2(OO3)C3CC4CC(C3)CC2C4)ccc1CN1CCOCC1 (stereo unspecified)
Stability [1]: Stable
concentration at 24 h [2]: > 0.1 µg/mL
half-life at 5 µM [3]: 0.333 h
half-life at 1 µM [4]: 0.8 h
microsomal CLint at 1 µM [5]: 51 µL/min/mg
microsomal CLint at 5 µM [6]: 89 µL/min/mg
microsomal CLint at 1 µM [7]: 37 µL/min/mg
Drug metabolism [8]: Metabolite_Detected
Drug metabolism [9]: Metabolite_Notdetected
Drug metabolism [10]: Metabolite_Notdetected
Drug metabolism [11]: Metabolite_Notdetected
Drug metabolism [12]: Metabolite_Detected
Drug metabolism [13]: Metabolite_Detected
Drug metabolism [14]: Metabolite_Notdetected
Drug metabolism [15]: Metabolite_Notdetected
Drug metabolism [16]: Metabolite_Notdetected
Drug metabolism [17]: Metabolite_Notdetected
Drug metabolism [18]: Metabolite_Notdetected
IC50 [19]: > 20 µM
Cmax [20]: 0.148 µg/mL
Cmax [21]: 0.25 µg/mL
Cmax/dose [22]: 0.0049 µg/mL/mg/kg
Cmax/dose [23]: 0.0121 µg/mL/mg/kg
Cmax/dose [24]: 0.0025 µg/mL/mg/kg
Tmax [25]: 1 h
Tmax [26]: 1 h
Tmax [27]: 2 h
AUC(0-t) [28]: 0.749 µg·h/mL
AUC(0-t) [29]: 0.94 µg·h/mL
AUCt/dose [30]: 0.0232 µg·h/mL/mg/kg
Retention_time [31]: 3.68 min
